Data taken from patent US10253071B2, “Selectin inhibitors, composition, and uses related thereto” (Beth Israel Deaconess Medical Center, Inc., priority 2014, dated 2019).
Like-named read-outs stand apart in the source and are kept apart here. Square brackets hold non-standard residues; d marks the D form. Ends that are not written are not given here. Peptide text beside a SMILES is read from it. * marks the point of attachment. X1 = CC(=O)N[C@@H]1[C@@H](O[C@@H]2O[C@H](CO)[C@H](O)[C@H](O)[C@H]2O)[C@@H](O)[C@@H](CO[C@@H]2O[C@H](CO)[C@@H](O[C@@H]3O[C@H](CO)[C@H](O)[C@H](O[C@]4(C(=O)O)C[C@H](O)[C@@H](NC(C)=O)[C@H]([C@H](O)[C@H](O)CO)O4)[C@H]3O)[C@H](O[C@@H]3O[C@@H](C)[C@@H](O)[C@@H](O)[C@@H]3O)[C@H]2NC(C)=O)O[C@@H]1*; Phe(4-SO3H) = N[C@@H](Cc1ccc(S(=O)(=O)O)cc1)C(=O)O; Mca = COc1ccc2c(CC(=O)*)cc(=O)oc2c1

How the values were obtained:
mouse P-selectin = target: T1, mouse P-selectin (Mus musculus, UniProt Q01102); assay: Biacore binding assay, mouse P-selectin
T1 sequence (Q01102 42-768): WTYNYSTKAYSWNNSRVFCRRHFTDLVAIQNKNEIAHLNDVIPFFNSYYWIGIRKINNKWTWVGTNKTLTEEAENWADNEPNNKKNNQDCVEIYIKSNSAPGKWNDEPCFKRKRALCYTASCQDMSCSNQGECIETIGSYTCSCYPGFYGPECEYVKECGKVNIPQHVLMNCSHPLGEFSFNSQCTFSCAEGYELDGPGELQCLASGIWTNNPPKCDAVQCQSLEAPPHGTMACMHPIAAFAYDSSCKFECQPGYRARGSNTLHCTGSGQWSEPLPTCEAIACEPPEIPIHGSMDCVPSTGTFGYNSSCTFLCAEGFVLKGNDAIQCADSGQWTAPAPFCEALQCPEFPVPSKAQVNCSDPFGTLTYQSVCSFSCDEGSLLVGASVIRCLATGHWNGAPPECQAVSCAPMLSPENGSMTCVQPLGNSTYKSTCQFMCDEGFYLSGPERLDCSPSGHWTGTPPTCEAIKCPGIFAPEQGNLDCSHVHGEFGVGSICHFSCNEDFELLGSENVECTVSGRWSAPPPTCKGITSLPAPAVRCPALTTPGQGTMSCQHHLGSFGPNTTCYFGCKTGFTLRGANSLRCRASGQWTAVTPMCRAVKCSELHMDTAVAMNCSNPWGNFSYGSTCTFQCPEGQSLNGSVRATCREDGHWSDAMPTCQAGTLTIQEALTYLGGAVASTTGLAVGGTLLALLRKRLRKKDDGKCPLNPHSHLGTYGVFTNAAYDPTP
Description: (§1) Bound peptides were detected using Alexa-488 labeled anti-human IgG antibody (5 μg/mL). Three lectins RCA-1, AAL, and PNA were used to confirm the sequence of enzymatic steps. Monoclonal antibodies CHO131, PSG2 antibody and PL-1 were used to confirm the presence of SLex, tyrosine sulfates, and the peptide sequence, respectively. Biacore binding analysis to human P-selectin with observed rate constants for (D) GSnP-6, kon 3.1×10^5 M^−1s^−1, koff 6.9×10^3 M^−1s^−; GSn2P-6, kon6.4×10^5 M^−1s^−1, koff 6.8×10^3 M^−1s. Biacore binding analysis to mouse P-selectin with observed rate constants for (E) GsnP-6, kon 4.9×10^4 M^−1s^−1, koff 8.0×10^3 M^−1s^−; GSn2P-6 kon 5.3×10^4 M^−1s^−1, koff 9.0×10^3 M^−1s. (F) Temperature- and pH-dependent stability studies of GSnP-6.
(§2) Dissociation constants (Kd) were determined using a Biacore binding assay after initial capture of biotinylated GS(n)P-6 onto streptavidin-coated sensor chips followed by flow through of P-, L- or E-sel-Ig (2.5 to 60 μg/mL). […] The Kd of GSnP-6 to murine P-selectin was ˜9-fold lower than to human P-selectin.

human P-selectin [1] = target: T2, human P-selectin (Homo sapiens, UniProt P16109); assay: Biacore binding assay, human P-selectin
T2 sequence (P16109 42-830): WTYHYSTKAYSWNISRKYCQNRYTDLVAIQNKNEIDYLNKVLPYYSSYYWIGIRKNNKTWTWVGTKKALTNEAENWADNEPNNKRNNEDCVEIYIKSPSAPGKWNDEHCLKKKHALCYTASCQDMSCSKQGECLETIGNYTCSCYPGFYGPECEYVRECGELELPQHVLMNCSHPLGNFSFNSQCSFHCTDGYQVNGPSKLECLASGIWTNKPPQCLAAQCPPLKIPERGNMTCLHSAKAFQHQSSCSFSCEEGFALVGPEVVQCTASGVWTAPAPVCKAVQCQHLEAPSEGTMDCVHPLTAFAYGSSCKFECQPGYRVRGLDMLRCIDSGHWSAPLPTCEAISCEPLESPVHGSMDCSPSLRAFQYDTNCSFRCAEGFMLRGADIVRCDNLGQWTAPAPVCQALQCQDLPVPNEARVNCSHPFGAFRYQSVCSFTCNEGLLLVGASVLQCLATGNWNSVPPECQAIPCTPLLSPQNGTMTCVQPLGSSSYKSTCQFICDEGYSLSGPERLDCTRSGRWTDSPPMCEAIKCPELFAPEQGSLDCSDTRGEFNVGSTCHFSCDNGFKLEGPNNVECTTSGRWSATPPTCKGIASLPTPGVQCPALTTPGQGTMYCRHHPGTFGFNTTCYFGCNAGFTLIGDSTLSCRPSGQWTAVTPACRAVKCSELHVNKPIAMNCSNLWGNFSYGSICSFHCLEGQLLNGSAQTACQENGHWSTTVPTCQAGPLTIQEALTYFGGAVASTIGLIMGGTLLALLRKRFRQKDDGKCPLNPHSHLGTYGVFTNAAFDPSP
Description: as §1, §2

[2] = Chemical stability at low pH and at high temperature (RP-HPLC); assay type: physicochemical; details: sodium acetate/acetic acid buffer pH 5, 37° C.; and 2 mM phosphate buffer pH 7.5, 60° C.
Description: as §1
The chemical stability of GSnP-6 was evaluated under low pH conditions by incubating the compound in sodium acetate/acetic acid buffer at pH 5, 37° C., as well as under high temperature conditions by incubation in 2 mM phosphate buffer at pH 7.5, 60° C. (FIG. 3E).

[3] = tested on: P-selectin (recombinant Ig chimera); assay: Microarray binding screen of glycopeptide mimics, P-selectin; parameters: species or system human and mouse; details: selectin Ig chimeras 5-20 μg/mL, Alexa-488 anti-human IgG
Description: as §1
Binding affinities of PSGL-1 mimics towards selectins was initially screened using a microarray in which glycosulfopeptides and glycan standards (Sialyl Le^x, NA2, NA2,3, NA2,6 and LNnT) were printed on a NHS-activated glass slide. The slide was then incubated with recombinant Ig chimeras of P-, L-, or E-selectin (5-20 μg/mL) followed by Alexa-488 labeled anti-human IgG antibody (5 μg/mL). […] Binding of glycopeptides mimics to selectins was […] dependent and inhibited by EDTA.

human P-selectin [4] = target: T2, human P-selectin; details: comparison value for P-selectin; read-out: Kd of native PSGL-1 (comparison value); cited from earlier work

COc1ccc2c(CC(=O)NCCCC[C@H](N)C(=O)N[C@@H](CCC(=O)O)C(=O)N[C@@H](Cc3ccc(S(=O)(=O)O)cc3)C(=O)N[C@@H](CCC(=O)O)C(=O)N[C@@H](Cc3ccc(S(=O)(=O)O)cc3)C(=O)N[C@@H](CC(C)C)C(=O)N[C@@H](CC(=O)O)C(=O)N[C@@H](Cc3ccc(S(=O)(=O)O)cc3)C(=O)N[C@@H](CC(=O)O)C(=O)N[C@@H](Cc3ccccc3)C(=O)N[C@@H](CC(C)C)C(=O)N3CCC[C@H]3C(=O)N[C@@H](CCC(=O)O)C(=O)N[C@H](C(=O)N[C@@H](CCC(=O)O)C(=O)N3CCC[C@H]3C(=O)N[C@@H](CC(C)C)C(=O)O)[C@@H](C)O[C@H]3O[C@H](CO[C@@H]4O[C@H](CO)[C@@H](O[C@@H]5O[C@H](CO)[C@H](O)[C@H](O[C@]6(C(=O)O)C[C@H](O)[C@@H](NC(C)=O)[C@H]([C@H](O)[C@H](O)CO)O6)[C@H]5O)[C@H](O[C@@H]5O[C@@H](C)[C@@H](O)[C@@H](O)[C@@H]5O)[C@H]4NC(C)=O)[C@H](O)[C@H](O[C@@H]4O[C@H](CO)[C@H](O)[C@H](O)[C@H]4O)[C@H]3NC(C)=O)cc(=O)oc2c1 [GSn2P-6] (H-K(Mca)E[Phe(4-SO3H)]E[Phe(4-SO3H)]LD[Phe(4-SO3H)]DFLPET(X1)EPL-OH; N-terminus assumed) showed a koff (mouse P-selectin; read-out: koff, mouse P-selectin) of 0.009 s⁻¹, a kon (mouse P-selectin; read-out: kon, mouse P-selectin) of 53000 M⁻¹ s⁻¹ and a koff (human P-selectin [1]; Biacore observed rate constant) of 0.0068 s⁻¹. The kon (human P-selectin [1]; Biacore observed rate constant) was 640000 M⁻¹ s⁻¹ and the Kd (human P-selectin [1]; biotinylated GS(n)P-6 captured on streptavidin chip, P-sel-Ig 2.5 to 60 μg/mL, read-out: Dissociation constant (Kd) to human P-selectin) was 14 nM.

In the case of “GSP-6: Tyrosine O-sulfate series (X: O; R=H); native N-terminal PSGL-1 sequence containing tyrosine sulfate, hexasaccharide glycan (EYEYLDYDFLPETEPPE; also: tyrosine O-sulfate, positions not given here, hexasaccharide glycan, site not given here) [reference compound]”, the “chemical stability (degraded products by RP-HPLC)” value [2] is reported as “rapidly degrades” and the “binding to P-selectin compared with E- or L-selectin” value [3] is reported as “bound to P-selectin more strongly than to E- or L-selectin”.

B1: native PSGL-1: native P-selectin glycopeptide ligand-1, Kd comparison value (protein, UniProt Q14242 42-412, looked up)
P-selectin glycoprotein …: QATEYEYLDYDFLPETEPPEMLRNSTDTTPLTGPGTPESTTVEPAARRSTGLDAGGAVTELTTELANMGNLSTDSAAMEIQTTQPAATEAQTTQPVPTEAQTTPLAATEAQTTRLTATEAQTTPLAATEAQTTPPAATEAQTTQPTGLEAQTTAPAAMEAQTTAPAAMEAQTTPPAAMEAQTTQTTAMEAQTTAPEATEAQTTQPTATEAQTTPLAAMEALSTEPSATEALSMEPTTKRGLFIPFSVSSVTHKGIPMAASNLSVNYPVGAPDHISVKQCLLAILILALVATIFFVCTVVLAVRLSRKGHMYPVRNYSPTEMVCISSLLPDGGEGPSATANGGLSKAKSPGLTPEPREDREGDDLTLHSFLP
In the case of B1, the Kd (human P-selectin [4]) is given as 73 nM.
